Results published in PubChem BioAssay AID602167 (The Scripps Research Institute Molecular Screening Center, 2012).
Active and inactive are the calls of the source. The rule behind the calls is not given here.

biological target: transactivating tegument protein VP16 (Human herpesvirus 1), as a GAL4-VP16 activation-domain luciferase reporter; assay: VP16 transactivation inhibitor potency, dose response, counter-screen for SRC3 inhibitor project, cell-based, luminescence, high throughput, SRC3 series (AID 602167); details: VP16 transactivation luciferase reporter cells

Row | Compound | IC50
1 | CC(C)(C)c1cc(C(=O)N/N=C/c2ccc(O)cc2)n(-c2ccccc2)n1 | inactive
2 | CCOc1ccc(-c2cc(C)n3nc(C(N)=O)cc3n2)cc1 | inactive
3 | CC(=O)c1cccc(-c2csc3ncnc(Sc4nnnn4C)c23)c1 | 6.89 µM
4 | Cc1cccc(CN2CCN(C(=O)CCl)CC2)c1 | > 12 µM (inactive)
5 | COc1cccc(-c2nnc3sc(C4CCCCC4)nn23)c1 | 9.52 µM
6 | C=CS(=O)(=O)N(Cc1ccc(Cl)c(Cl)c1)C[C@@H](O)CO | inactive
7 | N#Cc1c2ccc(O)cc2n2ccccc12 | > 35.9 µM (inactive)
8 | CC(C)N(c1ccccc1)c1ccc(NC(=O)CCl)cc1 | inactive
9 | Cc1ccc(/C=C2\SC(=S)N(CCCC(=O)NC3CCCC3)C2=O)cc1 | 4.58 µM
10 | Cc1nnc(SC(=O)N2c3ccccc3Sc3ccccc32)s1 | 7.54 µM
11 | CN1C(=O)C2(C(C#N)=C(N)N(c3cc(Cl)cc(Cl)c3)C3=C2C(=O)CCC3)c2ccccc21 (stereo not drawn) | inactive
12 | Oc1ccc(C=NNc2ccccn2)c(O)c1 | inactive
13 | CCCC(=O)NC(c1ccc(Cl)cc1Cl)c1ccc2cccnc2c1O (stereo not drawn) | 4.42 µM
14 | Cc1ccc(NC(=O)c2cc(C)n(-c3ccccc3)c2C)cc1 | 0.223 µM
15 | OCCN1CCN(C(=S)c2ccc(-c3ccccc3)cc2)CC1 | > 35.9 µM (inactive)
16 | C=CCOc1ccc(/C=C2\SC(=S)N(CCC(=O)O)C2=O)cc1 | > 35.9 µM (inactive)
17 | NC(=O)c1sc2nc3c(c(-c4ccco4)c2c1N)CCC3 | 3.1 µM
18 | COc1cccc(/C=N/Nc2cc(-n3nc(C)cc3-c3ccccc3)ncn2)c1O | 6.45 µM
19 | O=C(N/N=C(\c1ccccc1)c1ccccn1)c1ccccc1Cl | 8.52 µM
20 | CC(C)(C)C(=O)Nc1ccc(N=Nc2ccccc2)cc1 | > 35.9 µM (inactive)
21 | Cc1cc(C(=O)COC(=O)C2=COCCO2)c(C)n1-c1ccccc1 | > 12 µM (inactive)
22 | CN(C)c1ccc(C(=S)Nc2ccccc2)cc1 | > 35.9 µM (inactive)
23 | O=c1[nH]c2ccccc2n1C1CCN(C(c2cc3ccccc3o2)c2nnnn2Cc2ccccc2)CC1 (stereo not drawn) | inactive
24 | O=C(CC1CS(=O)(=O)CC1CC(=O)Nc1ccc2c(c1)OCCO2)Nc1ccc2c(c1)OCCO2 (stereo not drawn) | inactive
25 | Cc1ccc(N(CCC#N)C(=O)CCl)cc1C | > 12 µM (inactive)
26 | COc1ccc(C(C(=O)NC2CCCCC2)N(C(=O)CCl)c2ccc(Cl)cc2)cc1 (stereo not drawn) | 5.27 µM
27 | COc1ccccc1C(=O)N(CCC1CCCN1C)c1nc2ccccc2s1 (stereo not drawn) | 7.9 µM

Row | Compound | IC50
28 | C=CCn1c(O)c(C(C)=NCc2cc(OC)cc(OC)c2)c(=O)[nH]c1=O | inactive
29 | Cc1nc(N)nc(N)c1-c1ccc(Cl)c(Cl)c1 | > 11.9 µM (inactive)
30 | CCn1ccnc1CN(C)Cc1cn[nH]c1-c1ccc(OC)c(F)c1 | 7.96 µM
31 | CCOc1ccc(CC(=O)Nc2ccc(NC(=O)c3ccco3)cc2)cc1OCC | 7.73 µM
32 | C=CCn1c(C)cc(C(=O)COc2ccc(C)nc2[N+](=O)[O-])c1C | inactive
33 | Cc1nc2c(-c3ccc(Cl)cc3)cnn2c(N)c1-c1ccc(F)cc1 | 1.2 µM
34 | COc1ccc(/C=C2/SC(=S)N(CCC(=O)O)C2=O)cc1 | > 35.9 µM (inactive)
35 | Cc1ccc(C2=NN(C(=O)CCl)C(c3cccs3)C2)o1 (stereo not drawn) | inactive
36 | c1ccc2c(c1)Nc1ccncc1S2 | inactive
37 | COc1cc(NS(C)(=O)=O)ccc1Nc1c2ccccc2nc2ccccc12 | > 35.9 µM (inactive)
38 | COc1ccc(C(C(=O)NC2CCCCC2)N(C(=O)CCl)c2ccc(OC)cc2)cc1 (stereo not drawn) | 6.59 µM
39 | Nc1nccc(-c2ccc(-n3cnc4ccccc43)cc2)n1 | 7.5 µM
40 | NC(=S)N/N=C1\CCSc2ccc(Cl)cc21 | inactive
41 | O=C(COc1ccc(Cl)cc1)Nc1ccc(C(=O)NCc2cccnc2)cc1 | inactive
42 | O=C(CCl)Nc1cccc(-c2cnc3ccccc3n2)c1 | inactive
43 | Cn1cnc([N+](=O)[O-])c1Sc1nc(N)nc2c1ncn2C1OC(CO)C(O)C1O (stereo not drawn) | 7.47 µM
44 | O=C(N/N=C\c1ccc([N+](=O)[O-])s1)c1cncc(Br)c1 | 6.45 µM
45 | CN1CCN(c2ccc(NC(=O)N3CCc4ccccc43)cc2)CC1 | inactive
46 | Cc1ccc(N=Nc2ccc3ccccc3c2O)cc1 | inactive
47 | CCOc1ccc(Nc2cc(C)nc(-n3nc(C)cc3C)n2)cc1 | inactive
48 | CCOc1ccc(/C=C2\SC(=S)N(CCCC(=O)NCCCN3CCOCC3)C2=O)cc1 | inactive
49 | C=CC[n+]1c(-c2ccc(C)cc2)csc1Nc1ccc(NC(C)=O)cc1 | > 35.9 µM (inactive)
50 | O=C(NC(NC(=S)N1CCOCC1)C(Cl)(Cl)Cl)c1ccc(Cl)cc1 (stereo not drawn) | > 35.9 µM (inactive)
51 | COc1cc(C(=O)OCC(=O)Nc2sccc2C(N)=O)cc(OC)c1OC | > 35.9 µM (inactive)
52 | O=C(OCc1ccccc1)c1ccc(NCc2cc(O)ccc2O)cc1 | 5.95 µM
53 | CN(Cc1cnc2nc(N)nc(N)c2n1)c1ccc(C(=O)NC(CCC(=O)O)C(=O)O)c2ccccc12 (stereo not drawn) | > 35.9 µM (inactive)
